Assay: gradient 5% acetonitrile 3 min, to 50% in 2 min, to 85% in 15 min, held 3 min, 100 µL/min
Conditions: column: Zorbax Extend-C18 2.1 x 50 mm; eluents: water / acetonitrile, 0.1% formic acid
Outline: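 The system's dead and dwell volumes were 40 μL and 900 μL, with a Zorbax Extend-C18 column (2.1 × 50 mm, 1.8 μm) run at 100 μL/min in water and acetonitrile containing 0.1% formic acid each. Pure standards were analyzed in mixtures of ~100 molecules by HPLC–quadrupole time-of-flight mass spectrometry in positive and negative ionization mode. Retention time was assigned from computationally picked, manually inspected adduct peaks.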

Row | RP-LC retention time [s] | Compound
1 | 656 | Cc1noc(CNC(=O)C2CCN(C(=O)Cc3cn(C)c4ccccc34)CC2)n1
2 | 966 | Cc1cc(C)c(C)c(S(=O)(=O)NCC(=O)N2CCN(c3ccccc3)CC2)c1C
3 | 764 | COc1cccc(CNC(=O)CN2C(=O)NC(c3ccc(Cl)cc3)C3=C2COC3=O)c1 (centres undefined)
4 | 777 | COC(=O)c1ncn2c1C(=O)N(Cc1ccccc1)C(C)(C(=O)NC1CCCCCC1)C2 (centres undefined)
5 | 934 | CC(C)c1ccc(NC(=O)Cn2ncc3c(c2=O)N(CC2CC2)C(=O)CS3)cc1
6 | 795 | CCc1cc(C(=O)Nc2cc(OC)cc(OC)c2)nc2cc(-c3ccco3)nn12
7 | 545 | CC1CCCCN1CCCNC(=O)CCCN1C(=O)CCn2nc(-c3cccn3C)cc21 (centres undefined)
8 | 1130 | CCOC(=O)C(=CNc1ccccc1Cl)C(=O)OCC
9 | 620 | Cc1ccccc1C(=O)N1C[C@@H](F)C[C@H]1C(=O)N1CCOCC1
10 | 663 | COc1cccc(CC(=O)N2CCC(c3cc(N)on3)CC2)c1
11 | 618 | COc1ccc(C(=O)OCCN2CCN(C3=NS(=O)(=O)c4ccccc43)CC2)cc1OC
12 | 639 | CCc1cc(=O)n(CC(=O)N(CC)Cc2ccccc2)c(N)n1
13 | 839 | Cc1ccc(N2CCC(NC(=O)CC3CCCC3)C2=O)cc1 (centres undefined)
14 | 861 | CC1=C(c2ccc(F)cc2)S(=O)(=O)N=C1N1CCC(NC(=O)NC(C)C)CC1
15 | 574 | COc1ccc(NC(=O)c2cn3c(n2)CCCC3)cc1
16 | 1170 | O=C(NCC1CCCCC1)C1CCN(C(=O)c2cc3ccsc3n2Cc2ccc(Cl)cc2)CC1
17 | 664 | O=C(NCCc1noc(C2CC2)n1)c1ccoc1
18 | 875 | COC(=O)c1ccc2c(=O)n(-c3ccc4c(c3)OCO4)c(N3CCOCC3)nc2c1
19 | 951 | CC(C)CN(CC(C)C)c1nc(-c2ccccc2)nc2ccccc12
20 | 1060 | CC(C)NC(=O)Cn1cnc2nc(N3CCC(C(=O)NC4CC4)CC3)sc2c1=O
21 | 943 | CC(C)c1ccc(OCC(=O)Nc2nnc(C3CC(=O)N(c4ccc(Cl)cc4)C3)o2)cc1 (centres undefined)
22 | 711 | CC(C)(C)c1ccc(C(=O)N2CCN(c3nc(CN4CCOCC4)cs3)CC2)cc1
23 | 786 | O=C(Cn1ccc2ccccc21)NCCCC(=O)Nc1cccc2cccnc12
24 | 587 | CCn1c(CC2CCN(C(=O)c3nccc4ccccc34)C2)nc2cccnc21 (centres undefined)
25 | 698 | COc1ccc(-c2cn3c(CC(=O)N4CCN(c5ccccc5OC)CC4)csc3n2)cc1OC

Row | RP-LC retention time [s] | Compound
26 | 750 | CN(C)CCCOc1nn(Cc2ccccc2)c2ccccc12
27 | 636 | O=C(CSc1nnc(Cc2ccccc2)o1)N1CCOCC1
28 | 821 | Cc1ccc(C(=O)Nc2ccc(-n3c(C)nc4ccccc4c3=O)cc2C)s1
29 | 702 | COc1cc(C(=O)N(Cc2cccs2)C2CCS(=O)(=O)C2)cc(OC)c1OC (centres undefined)
30 | 1050 | CCc1nc(-c2csc(S(=O)(=O)N3CCCC(C(=O)NCc4ccccc4Cl)C3)c2)no1 (centres undefined)
31 | 784 | COc1ccc(F)c(F)c1C(=O)c1cnc(NC2CCN(S(C)(=O)=O)CC2)nc1N
32 | 884 | Cc1cccc(CNC(=O)c2cc3n(n2)CC(C)(C(=O)NC2CCCCC2)N(C)C3=O)c1 (centres undefined)
33 | 688 | Cc1cccc(C(=O)N2CC(C)C(=O)Nc3ccccc32)c1 (centres undefined)
34 | 778 | COc1ccc(NC(=O)CN2C(=O)NC3(CCCCC3)C2=O)cc1Cl
35 | 823 | COc1ccc(NC(=O)N2CCN(Cc3nc4cc(-c5ccccc5)ccc4o3)CC2)cc1
36 | 769 | CCOc1ccc(S(=O)(=O)N2CCCC(C(=O)NCCOC)C2)cc1C (centres undefined)
37 | 756 | COCCN1C(=O)c2ccccc2C(C(=O)NCCCOC(C)C)C12CCCCC2 (centres undefined)
38 | 978 | Cc1nn(CC(=O)N2CCCCCC2)c(=O)c2c(-n3cccc3)n(-c3ccccc3)nc12
39 | 728 | COc1ccc(C2CC(=O)Nc3c(C(=O)O)cn(-c4cccc(F)c4)c32)cc1OC (centres undefined)
40 | 567 | COC[C@@H]1CN(S(=O)(=O)c2cn(C)cn2)C[C@H]1c1ccccn1
41 | 559 | O=C(NC1CC1)c1nc(C(=O)N2CCN(c3ccccn3)CC2)cs1
42 | 670 | O=C(NCc1ccccc1C(F)(F)F)C1CCN(c2cc(N3CCOCC3)ncn2)CC1
43 | 1070 | COc1ccc(OC)c(NC(=O)N2CCN(c3nc4ccccc4nc3C(F)(F)F)CC2)c1
44 | 857 | COC(=O)C1=C(C)NC(=O)NC1c1cn(-c2ccccc2)nc1-c1ccc(F)cc1 (centres undefined)
45 | 595 | NC(=O)c1ccc(NC(=O)C2CCN(c3cc(N4CCCCC4)ncn3)CC2)cc1
46 | 891 | O=C(N1CCC(Cc2ccc(COc3cccnc3)cc2)CC1)C1(c2ccccc2)CC1
47 | 838 | COc1ccccc1N1CCN(S(=O)(=O)c2cc3c(s2)CCN(C(C)=O)C3)CC1
48 | 787 | O=C(Cc1nnc(-c2ccccc2)o1)NC1CCCCC1
49 | 727 | CCCNc1cc(N2CCC(CCC(=O)NCc3ccc(F)cc3Cl)CC2)ncn1
50 | 556 | Cc1cc(C(=O)N2CCN(c3ccccn3)CC2)nc2ccnn12

More lines, now with the values behind:

Row | Compound | RP-LC retention time [s]
51 | CCn1c(CCC(=O)NCc2ccc(F)c(Cl)c2)nc2c(C)cccc2c1=O | 916
52 | O=S(=O)(Nc1ccc2c(c1)OCO2)c1ccc2nncn2c1 | 648
53 | CCN1C(=O)COc2ccc(-c3noc(-c4ccc(OC)c(OC)c4)n3)cc21 | 1020
54 | CCn1nc(C)c2ccnc(N3CCC(C(=O)N4CCN(c5ccc(Cl)cc5)CC4)CC3)c21 | 780
55 | COc1ccc(CNC(=O)Cc2nnc(-c3ccc4ncccc4c3)o2)cc1OC | 646
56 | Cc1ccc(NC(=O)N2CCC(n3c(C(F)(F)F)nc4cccnc43)CC2)cc1F | 944
57 | COc1ccc(-c2noc(-c3cccnc3N3CCN(c4ccccc4OC)CC3)n2)cc1 | 1150
58 | Cc1ccc(-c2cn3cccnc3n2)cc1NC(=O)c1cccc(Br)c1 | 723
59 | N#Cc1cccc(NC(=O)Cn2cccc(-c3nc(-c4ccccc4)no3)c2=O)c1 | 828
60 | Cc1cc2c(c(=O)n(-c3ccc(F)cc3)c(=O)n2CC(=O)Nc2cccc(C(F)(F)F)c2)n1C | 933
61 | O=C(c1cnccn1)N1CCCn2nc(-c3ccc(Cl)cc3)cc2C1 | 788
62 | COc1ccc(CNS(=O)(=O)c2cc(-c3nc(C(C)C)cs3)sc2C)cc1 | 1180
63 | CC(C)n1c(=O)oc2cc(-c3noc(-c4ccc5cc[nH]c5c4)n3)ccc21 | 1100
64 | COc1ccc(-n2cc(C(=O)O)nn2)cc1OC | 638
65 | CCOC(=O)CNC(=O)Nc1cccc(-c2nnc(Cc3ccc(C)cc3)o2)c1 | 867
66 | O=C(NCc1ccc2c(c1)OCO2)C1CCN(c2cnc3nccnc3c2)CC1 | 659
67 | Cc1cccc(-c2nc3ccccn3c2NC(=O)NCc2ccco2)c1 | 640
68 | Cc1cccc2nnc(N3CCN(C(=O)c4cc(F)cc(F)c4)CC3)n12 | 669
69 | CC(=O)c1cccc(NC(=O)c2ncn(-c3ccccc3)n2)c1 | 731
70 | Clc1ccc(-c2nc3cnccn3c2Nc2ccc3c(c2)OCCO3)cc1 | 891

Row | Compound | RP-LC retention time [s]
71 | CC(=O)Nc1cccc(-c2nc(-c3ccc4oc(-c5ccccc5)nc4c3)no2)c1 | 769
72 | CCCCOC(=O)C1=CN(C)S(=O)(=O)N=C1C | 875
73 | COC(=O)c1cnc2nc(C)ccc2c1Nc1cccc(Cl)c1F | 704
74 | Cc1ccc(NC(=O)c2cn(-c3cc(N(C)C)ncn3)cn2)cc1F | 884
75 | O=C(Cc1csc(Nc2cccc(Cl)c2)n1)NCc1cccnc1 | 575
76 | CCOC(=O)c1ccccc1NC(=O)CSc1ccc(-c2ccccn2)nn1 | 906
77 | CC(=O)Nc1ccc(-c2nc(-c3cccc(-c4ccnn4C)c3)no2)cc1 | 1140
78 | COc1ccc(OC)c(S(=O)(=O)N2CCc3c(c(-c4nnc(-c5ccc(F)cc5)o4)nn3C)C2)c1 | 900
79 | Cc1cc(CNC(=O)c2cnccn2)no1 | 577
80 | COc1ccc(Cl)cc1NC(=O)c1cc(C)n2nc(C)cc2n1 | 1160
81 | C[C@H]1CN(C(=O)Nc2cc(F)cc(F)c2)C[C@@H]1c1nc(-c2ccncc2)no1 | 883
82 | Cc1ccc(NS(=O)(=O)c2c[nH]c3ncccc23)cc1F | 761
83 | CC1CCCCN1c1cc(-n2cnc(C(=O)Nc3ccc4c(c3)OCCO4)c2)ncn1 (centres undefined) | 1040
84 | O=C(c1cc(-c2ccccc2)n[nH]1)N1CCN(c2cc(-c3ccccc3)ncn2)CC1 | 609
85 | Cc1cccc(NC(=O)Cn2c(=O)n(-c3ccccc3)c3ncccc32)c1C | 832
86 | CCN1C(=O)CCc2cc(NS(=O)(=O)c3ccc(C)c(F)c3)ccc21 | 800
87 | Cc1ccc(-c2nc3cnccn3c2Nc2ccc(F)cc2)cc1 | 904
88 | COc1ccc(-c2noc(Cn3nc(-c4ccccc4)ccc3=O)n2)c(OC)c1 | 880
89 | Cc1cccc(-c2nc(C3CCN(S(=O)(=O)c4ccccc4)CC3)no2)c1 | 1150
